Measured values as given in ChEMBL document CHEMBL1201862, “PubChem BioAssay data set” (2004).
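Each compound was tested at five concentrations against cells in 96-well plates for 48 hours. Here, GI50 denotes the concentration required for 50% inhibition of growth.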 Activity calls are given as the source filed them. Rule as the data show it: active = GI50 up to about 1.1 µM and inactive = higher.

Tests used:
Experiment in all cases: growth of human tumour cells (NCI), 48 h
BT-549 = test system: BT-549
COLO 205 = test system: COLO 205
HCT-15 = test system: HCT-15
K562 = test system: K562
KM12 = test system: KM12
LOX IMVI = test system: LOX IMVI
MDA-MB-231 = test system: MDA-MB-231
MOLT-4 = test system: MOLT-4
NCI-H226 = test system: NCI-H226
NCI/ADR-RES = test system: NCI/ADR-RES
OVCAR-5 = test system: OVCAR-5
OVCAR-8 = test system: OVCAR-8
RPMI-8226 = test system: RPMI-8226
RXF 393 = test system: RXF 393
SK-MEL-5 = test system: SK-MEL-5
SN12C = test system: SN12C
SNB-19 = test system: SNB-19
SR = test system: SR
UACC-257 = test system: UACC-257
Malme-3M = test system: Malme-3M

SMILES	GI50 (BT-549)	GI50 (COLO 205)	GI50 (HCT-15) [µM]	GI50 (K562)	GI50 (KM12)	GI50 (LOX IMVI)	GI50 (MDA-MB-231)	GI50 (MOLT-4)	GI50 (NCI-H226)	GI50 (NCI/ADR-RES)	GI50 (OVCAR-5)	GI50 (OVCAR-8)	GI50 (RPMI-8226)	GI50 (RXF 393)	GI50 (SK-MEL-5)	GI50 (SN12C)	GI50 (SNB-19)	GI50 (SR)	GI50 (UACC-257)	GI50 (Malme-3M)
O=c1c(C(c2cccnc2)c2c(O)oc3cc(O)ccc3c2=O)c(O)oc2cc(O)ccc12	> 100 µM (inactive)	> 100 µM (inactive)	> 100	> 100 µM (inactive)	> 100 µM (inactive)	> 100 µM (inactive)	> 100 µM (inactive)	> 100 µM (inactive)	> 100 µM (inactive)	> 100 µM (inactive)	> 100 µM (inactive)	> 100 µM (inactive)	> 100 µM (inactive)	> 100 µM (inactive)	> 100 µM (inactive)	> 100 µM (inactive)	> 100 µM (inactive)	> 100 µM (inactive)	> 100 µM (inactive)	
O=C(O)c1cc2ccccc2c2c1C(=O)c1ccccc1-2	> 100 µM (inactive)	> 100 µM (inactive)	92	> 100 µM (inactive)	> 100 µM (inactive)	> 100 µM (inactive)	> 100 µM (inactive)	> 100 µM (inactive)	> 100 µM (inactive)	> 100 µM (inactive)	> 100 µM (inactive)	> 100 µM (inactive)	65.8 µM (inactive)	> 100 µM (inactive)	79.3 µM (inactive)	75 µM (inactive)	57 µM (inactive)	99.8 µM (inactive)	> 100 µM (inactive)	83.8 µM (inactive)
CCC(c1nc2ccccc2c(=O)n1NC(=O)C(C)(C)C)C1(O)CCCCC1 (configuration not stated)	> 100 µM (inactive)	> 100 µM (inactive)	> 100	> 100 µM (inactive)	> 100 µM (inactive)		> 100 µM (inactive)	80.4 µM (inactive)	> 100 µM (inactive)	> 100 µM (inactive)	> 100 µM (inactive)	> 100 µM (inactive)	> 100 µM (inactive)	> 100 µM (inactive)	> 100 µM (inactive)	> 100 µM (inactive)	> 100 µM (inactive)	> 100 µM (inactive)	> 100 µM (inactive)	> 100 µM (inactive)
O=C(N/N=C\c1cccs1)c1ccncc1	> 100 µM (inactive)	> 100 µM (inactive)	> 100	> 100 µM (inactive)	> 100 µM (inactive)		> 100 µM (inactive)	> 100 µM (inactive)	> 100 µM (inactive)	> 100 µM (inactive)	> 100 µM (inactive)	> 100 µM (inactive)	> 100 µM (inactive)	> 100 µM (inactive)	> 100 µM (inactive)	> 100 µM (inactive)	> 100 µM (inactive)	> 100 µM (inactive)	> 100 µM (inactive)	> 100 µM (inactive)
C=C(CCOC)CCC1CCCCC(CN(C)C)C1=O (configuration not stated)	> 100 µM (inactive)	> 100 µM (inactive)	> 100	> 100 µM (inactive)	> 100 µM (inactive)	> 100 µM (inactive)	> 100 µM (inactive)	> 100 µM (inactive)	> 100 µM (inactive)	> 100 µM (inactive)	> 100 µM (inactive)	> 100 µM (inactive)	> 100 µM (inactive)	> 100 µM (inactive)	> 100 µM (inactive)	> 100 µM (inactive)	> 100 µM (inactive)	> 100 µM (inactive)		> 100 µM (inactive)
ClCCN(CCCl)c1ccc(CNCCCNCc2ccc(N(CCCl)CCCl)cc2)cc1	3.38 µM (inactive)	1.62 µM (inactive)	2.47	1.93 µM (inactive)	1.99 µM (inactive)	1.65 µM (inactive)	2.7 µM (inactive)		6.75 µM (inactive)	6.15 µM (inactive)	3.97 µM (inactive)	2.38 µM (inactive)	3.52 µM (inactive)	1.59 µM (inactive)	1.95 µM (inactive)	1.63 µM (inactive)	1.87 µM (inactive)	0.11 µM (active)	2.29 µM (inactive)	2.44 µM (inactive)
Clc1ccccc1-c1nc2cc(C34CC5CC(CC(C5)C3)C4)ccc2[nH]1	20 µM (inactive)	34 µM (inactive)	41.9	27.5 µM (inactive)	53.2 µM (inactive)	12.4 µM (inactive)	15 µM (inactive)	79.8 µM (inactive)	25.4 µM (inactive)	28.1 µM (inactive)	17.8 µM (inactive)	10.9 µM (inactive)	34.2 µM (inactive)	5.4 µM (inactive)	32.7 µM (inactive)	24.3 µM (inactive)	10 µM (inactive)	20.2 µM (inactive)	59.7 µM (inactive)	25.5 µM (inactive)
CC(=O)OC[C@H]1On2nnnc2[C@H](OC(C)=O)[C@@H](OC(C)=O)[C@@H]1OC(C)=O	> 100 µM (inactive)	> 100 µM (inactive)	> 100	> 100 µM (inactive)	> 100 µM (inactive)	> 100 µM (inactive)	> 100 µM (inactive)	> 100 µM (inactive)	> 100 µM (inactive)	91.8 µM (inactive)	> 100 µM (inactive)	> 100 µM (inactive)	> 100 µM (inactive)	> 100 µM (inactive)	> 100 µM (inactive)	> 100 µM (inactive)		> 100 µM (inactive)	> 100 µM (inactive)	> 100 µM (inactive)
CN(C)CCNC(=O)c1ccc(NCCCN(C)CCCNc2ccc(C(=O)NCCN(C)C)c3nc4ccc([N+](=O)[O-])cc4c(O)c23)c2c(O)c3cc([N+](=O)[O-])ccc3nc12	0.447 µM (active)	< 0.0133 µM (active)	0.368	0.0135 µM (active)	0.04 µM (active)	< 0.01 µM (active)	0.05 µM (active)	< 0.01 µM (active)	< 0.01 µM (active)	1.23 µM (inactive)	0.158 µM (active)	< 0.01 µM (active)	< 0.01 µM (active)	0.101 µM (active)	0.0346 µM (active)	< 0.01 µM (active)	< 0.0146 µM (active)	0.0311 µM (active)	0.385 µM (active)	0.126 µM (active)
C=C[C@]1(O[Si](C)(C)C)C[C@@]2(C(=O)OCC)C(O)C(=O)N3CCc4cc(OC)c(OC)cc4[C@]312 (some centres not stated)	> 100 µM (inactive)	> 100 µM (inactive)	> 100	> 100 µM (inactive)	> 100 µM (inactive)	> 100 µM (inactive)	> 100 µM (inactive)	> 100 µM (inactive)	> 100 µM (inactive)	> 100 µM (inactive)	> 100 µM (inactive)	> 100 µM (inactive)	61.1 µM (inactive)	> 100 µM (inactive)	44.7 µM (inactive)	> 100 µM (inactive)	> 100 µM (inactive)	> 100 µM (inactive)	> 100 µM (inactive)	> 100 µM (inactive)
Clc1ccc(CCN[C@H]2CCCC[C@H]2N2CCCC2)cc1Cl	26.2 µM (inactive)	13.6 µM (inactive)	9.59	24.2 µM (inactive)	17.2 µM (inactive)	16 µM (inactive)	25.6 µM (inactive)	24.4 µM (inactive)	21.1 µM (inactive)	21.4 µM (inactive)	20.6 µM (inactive)	26.3 µM (inactive)	25.2 µM (inactive)		14.6 µM (inactive)	20.2 µM (inactive)	25.9 µM (inactive)	28.7 µM (inactive)	12 µM (inactive)	15.9 µM (inactive)
O=c1onc2c3ccccc3ncn12	> 100 µM (inactive)	> 100 µM (inactive)	> 100	> 100 µM (inactive)	> 100 µM (inactive)	> 100 µM (inactive)	> 100 µM (inactive)	> 100 µM (inactive)	> 100 µM (inactive)	> 100 µM (inactive)	> 100 µM (inactive)	> 100 µM (inactive)	> 100 µM (inactive)	> 100 µM (inactive)	> 100 µM (inactive)	> 100 µM (inactive)	> 100 µM (inactive)	> 100 µM (inactive)	> 100 µM (inactive)	
COc1ccc(/C=c2/[nH]c(=O)/c(=C\c3ccc(OCc4ccccc4)cn3)[nH]c2=O)cc1	45.3 µM (inactive)	32.2 µM (inactive)	38.6	31.1 µM (inactive)	47.1 µM (inactive)	82.4 µM (inactive)	> 100 µM (inactive)	43.6 µM (inactive)	67.9 µM (inactive)	58.1 µM (inactive)	> 100 µM (inactive)	98.2 µM (inactive)		23.2 µM (inactive)	50.2 µM (inactive)	> 100 µM (inactive)	34.4 µM (inactive)	20.8 µM (inactive)	> 100 µM (inactive)	> 100 µM (inactive)
CN1CCN(C2=CC(=O)c3c(O)ccc(O)c3C2=O)CC1	1.76 µM (inactive)	0.166 µM (active)		0.347 µM (active)	2.07 µM (inactive)	0.547 µM (active)	1.46 µM (inactive)	1.01 µM (active)	1.59 µM (inactive)	1.04 µM (active)			1.37 µM (inactive)	1.57 µM (inactive)	0.179 µM (active)	1.64 µM (inactive)	1.69 µM (inactive)	1.38 µM (inactive)	0.244 µM (active)	0.228 µM (active)
Nc1nccc(NCC2(CO)CC(CCc3ccccc3)C2)n1 (configuration not stated)	21.3 µM (inactive)	13.2 µM (inactive)	18	4.74 µM (inactive)	17 µM (inactive)	14.3 µM (inactive)	16.6 µM (inactive)	7.98 µM (inactive)	16 µM (inactive)	14.2 µM (inactive)	14 µM (inactive)	18.2 µM (inactive)	10.8 µM (inactive)	15.6 µM (inactive)	4.06 µM (inactive)	19.4 µM (inactive)		8.71 µM (inactive)	14.3 µM (inactive)	13.7 µM (inactive)
